Consider 18 molecules from US6362218B1, “Brefeldin A derivatives” (Purdue Research Foundation, priority 1997, dated 2002).

The subject of data set [1] is UACC-62. The experiment in a line: NCI human cancer cell line screen, antiproliferative activity, Melanoma UACC-62. The class given is cell-based. Particulars: concentration corresponding to 50% growth inhibition, read-out: cytotoxicity GI50, Melanoma UACC-62. As to the method:
(§1) The new synthesized brefeldin A prodrug candidates and analogs were examined for antiproliferative activity against human cancer cell lines in the National Cancer Institute screen, in which the activity of each compound was evaluated with approximately 55 different cancer cell lines of diverse tumor origins.

The nature of data set [2]: Solubility of saturated solutions in distilled water, gravimetric. Particulars: distilled water at room temperature, saturated solution.
For data set [3], the system named is OVCAR-3. Description: NCI human cancer cell line screen, antiproliferative activity, Ovarian OVCAR-3. Type of data set: cell-based. The conditions noted are these: concentration corresponding to 50% growth inhibition, read-out: cytotoxicity GI50, Ovarian OVCAR-3. As to the method:
as §1

Data set [4] deals with DU-145. The experiment in a line: NCI human cancer cell line screen, antiproliferative activity, Prostate DU-145. The class given is cell-based. The conditions noted are these: concentration corresponding to 50% growth inhibition, read-out: cytotoxicity GI50, Prostate DU-145. The protocol:
as §1

The subject of data set [5] is HOP-62. The experiment in a line: NCI human cancer cell line screen, antiproliferative activity, Lung HOP-62. The class given is cell-based. The conditions noted are these: concentration corresponding to 50% growth inhibition, read-out: cytotoxicity GI50, Lung HOP-62. As to the method: as §1
Data set [6] deals with HCT-116. Description: NCI human cancer cell line screen, antiproliferative activity, Colon HCT-116. The class given is cell-based. Particulars: concentration corresponding to 50% growth inhibition, read-out: cytotoxicity GI50, Colon HCT-116. The protocol: as §1
Data set [7] has as its system all human cancer cell lines successfully tested. The experiment in a line: NCI screen, mean graph midpoint over approximately 55 cancer cell lines. Particulars: average GI50 for all cell lines tested (approximately 55), test range 10^-4 to 10^-8 molar. Type of data set: cell-based. The protocol:
as §1

Data set [8] concerns SN12C. Description: NCI human cancer cell line screen, antiproliferative activity, Renal SN12C. The conditions noted are these: concentration corresponding to 50% growth inhibition, read-out: cytotoxicity GI50, Renal SN12C. Type of data set: cell-based. The protocol: as §1
Data set [9] concerns MDA-MB-435. The experiment in a line: NCI human cancer cell line screen, antiproliferative activity, Breast MDA-MB-435. The class given is cell-based. The conditions noted are these: concentration corresponding to 50% growth inhibition, read-out: cytotoxicity GI50, Breast MDA-MB-435. The protocol:
as §1

The subject of data set [10] is SF-539. Description: NCI human cancer cell line screen, antiproliferative activity, CNS SF-539. Type of data set: cell-based. The conditions noted are these: concentration corresponding to 50% growth inhibition, read-out: cytotoxicity GI50, CNS SF-539. As to the method: as §1

≈ marks a conversion by molar mass, not a printed value. Where “and” joins values, the source holds several entries; their conditions need not be identical. Equal values may be shown once. Bounds are passed on as bounds.

`C[C@H]1CCC/C=C/[C@@H]2C[C@H](O)C[C@H]2[C@H](O)/C=C/C(=O)O1` [Compound 1, Brefeldin A]: the GI50 was 0.022 µM in data set [1]; 0.032 µM in data set [3]; 0.13 µM in data set [4]; 0.07 µM in data set [5]; 0.029 µM in data set [6]; 0.09 µM in data set [8]. Moreover, the values for the GI50 in [9] and in [10] were 0.041 µM and 0.04 µM, respectively. Further, the solubility in data set [2] was found to be 2.8 mg/mL (≈ 9.99 mM). The “MGM (mean graph midpoint for growth inhibition)” value is 0.041 µM and 0.040 µM in data set [7]; 0.040 µM in [7] (listed as brefeldin A).

Turning to `C[C@H]1CCC/C=C/[C@@H]2C[C@H](O)C[C@H]2[C@H](O)[C@H]([S+]([O-])c2ccc(O)cc2)CC(=O)O1` (stereo partly drawn) [Compound 14, 2,3-Dihydro-(3R)-(4′-hydroxyphenylsulfinyl)brefeldin A], the 50% growth inhibitory concentration (GI50) in [1] is 0.03 µM; in [3], 0.025 µM; in [4], 0.118 µM; in data set [5], 0.088 µM; in [6], 0.026 µM; in [8], 0.05 µM. Besides, the 50% growth inhibitory concentration (GI50) in data set [9] turned out to be 0.042 µM; in data set [10] it was 0.017 µM. Further, the “MGM (mean graph midpoint for growth inhibition)” value in data set [7] turned out to be 0.037 µM.

`COC(=O)CSC1CC(=O)OC(C)CCCC=CC2CC(O)CC2C1O` [Compound 7, 2,3-Dihydro-(3R)-(methoxycarbonylmethylthiol)brefeldin A]: the GI50 turned out to be 27 µM in data set [3]; 30 µM in data set [4]; 28 µM in data set [5]; 19 µM in data set [6]; 32 µM in data set [8]; 30 µM in [9]. Further, the 50% growth inhibitory concentration (GI50) in [10] is 24 µM. Further, in data set [7], the “MGM (mean graph midpoint for growth inhibition)” value was determined as 17 µM.

For Brefeldin A 8 0-Glutarate [Compound 23], the GI50 was 20 µM in [3]; 30 µM in data set [4]; 33 µM in data set [5]; 21 µM in data set [6]; 32 µM in data set [8]; 11 µM in data set [9]. In addition, in [10], the 50% growth inhibitory concentration (GI50) amounted to 22 µM. For the same molecule, the “MGM (mean graph midpoint for growth inhibition)” value in [7] is 13 µM.

Regarding Brefeldin A 8 0-Succinate [Compound 22], the “MGM (mean graph midpoint for growth inhibition)” value in data set [7] is 2.5 µM.

In the case of `CC1CCCC=CC2CC(O)CC2C(O)C(O)C(O)C(=O)O1` (stereo not drawn) [Compound 26, 2,3-Dihydro-2,3-dihydroxybrefeldin A], the GI50 in [1] is 1.6 µM; in data set [3], 2.4 µM; in data set [4], 6.7 µM; in data set [5], 5 µM; in data set [8], 2.7 µM; in data set [9], 3.8 µM. Moreover, in data set [10], the 50% growth inhibitory concentration (GI50) was 0.68 µM. In addition, the “MGM (mean graph midpoint for growth inhibition)” value in data set [7] was 3.0 µM and 2.3 µM.

Consider `C[C@H]1CCC/C=C/[C@@H]2C[C@H](OC(=O)CCC(=O)O)C[C@H]2[C@H](OC(=O)CCC(=O)O)/C=C/C(=O)O1` [Compound 24, Brefeldin A Disuccinate], for which the 50% growth inhibitory concentration (GI50) in data set [1], in data set [3], in [4], in data set [5], in [6] and in data set [8] was above 100 µM each time. The 50% growth inhibitory concentration (GI50) in [9] and in data set [10] was above 100 µM in each case. The “MGM (mean graph midpoint for growth inhibition)” value in data set [7] was found to be 89 µM.

In turn, `C[C@H]1CCC/C=C/[C@@H]2C[C@H](O)C[C@H]2[C@H](O)[C@@H](SC[C@H](N)C(=O)O)CC(=O)O1` [Compound 11, 2,3-Dihydro-(3R)-(S-L-cysteinyl)brefeldin A] had a solubility in data set [2] of 35 mg/mL (≈ 87.2 mM).

With `CC1CCCC=CC2CC(O)CC2C(O)[C@H](SCC(O)CO)CC(=O)O1` (stereo partly drawn) [Compound 8, 2,3-Dihydro (3R)-(2′,3′-dihydroxypropylthio) brefeldin A], the GI50 in data set [1] turned out to be 16 µM; in data set [3] it was 22 µM; in data set [4] it was 18 µM; in data set [5], 33 µM; in [6] it was 36 µM; in data set [8], 34 µM. Also, the GI50 was 36 µM in data set [9] and 32 µM in data set [10]. Also, in data set [7], the “MGM (mean graph midpoint for growth inhibition)” value stood at 23 µM.

In the case of `CC1CCCC=CC2CC(O)CC2C(O)C(SCCN(C)C)CC(=O)O1` [Compound 4, 2,3-Dihydro-(3R)-(2′-N,N-dimethylaminoethylthiol)brefeldin A], the concentration for 50% growth inhibition (GI50) in data set [1] is 0.43 µM; in data set [4] it was 2.4 µM; in data set [6], 0.75 µM; in [8], 1.4 µM; in data set [9], 0.5 µM; in data set [10], 0.39 µM. In data set [2], the solubility is recorded as 10 mg/mL (≈ 25.9 mM). Also, the “MGM (mean graph midpoint for growth inhibition)” value in data set [7] is 0.68 µM.

In the case of `CC1CCCC=CC2CC(O)CC2C(O)[C@H]([S+]([O-])CCN)CC(=O)O1` (stereo partly drawn) [Compound 18, 2,3-Dihydro-(3R)-(2′-aminoethylsulfinyl)brefeldin A], the GI50 in data set [1] stood at 0.021 µM; in data set [3], 0.082 µM; in data set [4], 0.17 µM; in data set [5], 0.15 µM; in [6], 0.086 µM; in data set [8], 0.12 µM. In addition, the figures for the GI50 in data set [9] and in [10] were 0.055 µM and 0.02 µM, respectively. Further, the “MGM (mean graph midpoint for growth inhibition)” value in [7] worked out at 0.055 µM.

As for `C[C@H]1CCC/C=C/[C@@H]2C[C@H](O)C[C@H]2[C@@H](O)[C@H]([S+]([O-])CCN(C)C)CC(=O)O1` (stereo partly drawn) [Compound 20, 2,3-Dihydro-(3R)-[21-N,N-(dimethylamino)ethylsulfinyl]brefeldin A], the GI50 in [1] was 0.071 µM; in data set [3] it was 0.14 µM; in data set [4], 0.48 µM; in [5] it was 0.35 µM; in [6], 0.28 µM; in [8], 0.15 µM. Moreover, the GI50 turned out to be 0.41 µM in data set [9] and 0.3 µM in data set [10]. Besides, the “MGM (mean graph midpoint for growth inhibition)” value in [7] worked out at 0.20 µM.

On to `CC1CCCC=CC2CC(OC(=O)CCCC(=O)O)CC2C(OC(=O)CCCC(=O)O)C=CC(=O)O1` (stereo not drawn) [Compound 25, Brefeldin A Diglutarate], for which the concentration for 50% growth inhibition (GI50) in data set [1], in [3], in data set [4], in data set [5], in data set [6] and in data set [8] was above 100 µM each time. The 50% growth inhibitory concentration (GI50) in [9] and in [10] was above 100 µM each time. Moreover, the “MGM (mean graph midpoint for growth inhibition)” value in data set [7] is 98 µM.

Regarding `CC1CCCC=CC2CC(O)CC2C(O)C([S+]([O-])C[C@H](N)C(=O)O)CC(=O)O1` (stereo partly drawn) [Compound 21, 2,3-Dihydro-(3R)-(S-L-cysteinyl)brefeldin A Sulfoxide], the GI50 in data set [1] was determined as 0.038 µM; in [3] it was 0.039 µM; in data set [4], 0.43 µM; in data set [5], 0.7 µM; in data set [6], 0.091 µM; in data set [8], 0.16 µM. Also, the GI50 is 0.05 µM in data set [9] and 0.038 µM in data set [10]. Further, the “MGM (mean graph midpoint for growth inhibition)” value in data set [7] was found to be 0.096 µM.

For the molecule `CC1CCCC=CC2CC(O)CC2C(O)[C@H](Sc2ccc(O)cc2)CC(=O)O1` (stereo partly drawn) [Compound 3, 2,3-Dihydro-(3R)-(4′-hydroxyphenylthio)brefeldin A], the 50% growth inhibitory concentration (GI50) in data set [1] was found to be 4.8 µM; in [3], 2.4 µM; in data set [4], 6.3 µM; in data set [5], 3.2 µM; in data set [6] it was 2.5 µM; in [8], 4.4 µM. Further, in data set [10], the 50% growth inhibitory concentration (GI50) stood at 5.1 µM. In [7], the “MGM (mean graph midpoint for growth inhibition)” value came out at 3.2 µM.

As to `CC1CCCC=CC2CC(O)CC2C(O)C(SCCN)CC(=O)O1` [Compound 9, 2,3-Dihydro-(3R)-(2′)-aminoethylthio)brefeldin A], the GI50 in [1] was determined as 2.7 µM; in data set [3], 2.2 µM; in [5] it was 3.9 µM; in data set [6], 3.5 µM; in data set [10], 4.9 µM. In addition, in data set [7], the “MGM (mean graph midpoint for growth inhibition)” value was 2.5 µM.

On to `COC(=O)CS(=O)(=O)[C@@H]1CC(=O)OC(C)CCCC=CC2CC(O)CC2C1O` (stereo partly drawn) [Compound 27, 2,3-Dihydro(3R)-(methoxycarbonylmethylsulfonyl)brefeldin A], for which the concentration for 50% growth inhibition (GI50) came out at 5 µM in data set [1]; 3.2 µM in data set [3]; 6 µM in data set [4]; 5.1 µM in data set [5]; 3.7 µM in data set [6]; 5.5 µM in data set [9]. Further, in [7], the “MGM (mean graph midpoint for growth inhibition)” value was 3.5 µM.

Turning to `COc1ccc(S[C@@H]2CC(=O)OC(C)CCCC=CC3CC(O)CC3C2O)cc1` (stereo partly drawn) [Compound 10, 2,3-Dihydro-(3R)-(4′-methoxyphenylthio)brefeldin A], the concentration for 50% growth inhibition (GI50) in data set [1] was 29 µM; in data set [3], 22 µM; in data set [4], 36 µM; in data set [5] it was 24 µM; in data set [6] it was 33 µM; in data set [8], 30 µM. Further, the GI50 stood at 19 µM in data set [9] and 26 µM in [10]. For the same molecule, the “MGM (mean graph midpoint for growth inhibition)” value in data set [7] is 31 µM.
